{"source": "patent US10710978B2", "about": "“STK4 inhibitors for treatment of hematologic malignancies” (Dana-Farber Cancer Institute, Inc., priority 2015, dated 2020)", "test_in_all_cases": "KiNativ assay", "assay_type_in_all_cases": "binding", "details_in_all_cases": "H929 live cell", "key": {"QSK": {"biological_target": "QSK (Homo sapiens (Human), UniProt Q9Y2K2)", "sequence (Q9Y2K2 whole entry)": "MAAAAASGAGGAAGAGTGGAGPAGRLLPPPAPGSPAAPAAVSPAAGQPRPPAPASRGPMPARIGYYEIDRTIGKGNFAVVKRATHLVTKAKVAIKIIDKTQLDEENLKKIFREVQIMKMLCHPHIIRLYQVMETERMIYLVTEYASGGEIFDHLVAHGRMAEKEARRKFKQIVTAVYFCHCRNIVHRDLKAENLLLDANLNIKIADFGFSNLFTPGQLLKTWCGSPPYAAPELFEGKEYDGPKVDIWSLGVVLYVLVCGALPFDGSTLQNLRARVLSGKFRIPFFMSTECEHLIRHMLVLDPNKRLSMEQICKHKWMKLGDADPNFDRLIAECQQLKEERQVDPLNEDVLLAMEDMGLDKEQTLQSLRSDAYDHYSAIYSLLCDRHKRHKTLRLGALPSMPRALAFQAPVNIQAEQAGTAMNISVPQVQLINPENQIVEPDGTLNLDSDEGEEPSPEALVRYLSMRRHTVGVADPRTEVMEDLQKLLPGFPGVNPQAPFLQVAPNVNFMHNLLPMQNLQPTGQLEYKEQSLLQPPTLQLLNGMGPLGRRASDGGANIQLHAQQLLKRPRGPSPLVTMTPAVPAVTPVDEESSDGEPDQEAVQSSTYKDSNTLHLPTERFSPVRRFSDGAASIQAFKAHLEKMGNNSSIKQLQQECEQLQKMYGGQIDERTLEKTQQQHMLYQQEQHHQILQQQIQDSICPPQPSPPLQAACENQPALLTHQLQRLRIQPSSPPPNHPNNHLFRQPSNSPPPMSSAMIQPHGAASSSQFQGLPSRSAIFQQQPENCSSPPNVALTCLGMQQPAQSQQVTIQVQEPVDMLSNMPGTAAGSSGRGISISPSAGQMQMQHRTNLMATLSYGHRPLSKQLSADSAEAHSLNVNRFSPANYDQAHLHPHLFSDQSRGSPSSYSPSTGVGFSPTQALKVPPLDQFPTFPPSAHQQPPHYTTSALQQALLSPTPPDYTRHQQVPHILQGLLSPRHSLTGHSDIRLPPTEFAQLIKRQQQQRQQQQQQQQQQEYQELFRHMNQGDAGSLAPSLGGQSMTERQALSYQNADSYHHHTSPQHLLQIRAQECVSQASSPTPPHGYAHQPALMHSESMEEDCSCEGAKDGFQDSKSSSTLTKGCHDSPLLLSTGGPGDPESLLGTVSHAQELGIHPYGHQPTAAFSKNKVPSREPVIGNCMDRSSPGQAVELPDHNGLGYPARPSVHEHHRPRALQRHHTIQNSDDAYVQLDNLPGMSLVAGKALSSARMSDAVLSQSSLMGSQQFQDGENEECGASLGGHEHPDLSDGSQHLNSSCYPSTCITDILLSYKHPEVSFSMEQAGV", "how_it_was_run": "(§1)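 In duplicate, compounds at 10 μM were screened against kinases in H929 live cells using KiNativ, with MS as the detection method for IC50.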"}, "GPRK5": {"biological_target": "GPRK5 (Homo sapiens (Human), UniProt P34947)", "sequence (P34947 whole entry)": "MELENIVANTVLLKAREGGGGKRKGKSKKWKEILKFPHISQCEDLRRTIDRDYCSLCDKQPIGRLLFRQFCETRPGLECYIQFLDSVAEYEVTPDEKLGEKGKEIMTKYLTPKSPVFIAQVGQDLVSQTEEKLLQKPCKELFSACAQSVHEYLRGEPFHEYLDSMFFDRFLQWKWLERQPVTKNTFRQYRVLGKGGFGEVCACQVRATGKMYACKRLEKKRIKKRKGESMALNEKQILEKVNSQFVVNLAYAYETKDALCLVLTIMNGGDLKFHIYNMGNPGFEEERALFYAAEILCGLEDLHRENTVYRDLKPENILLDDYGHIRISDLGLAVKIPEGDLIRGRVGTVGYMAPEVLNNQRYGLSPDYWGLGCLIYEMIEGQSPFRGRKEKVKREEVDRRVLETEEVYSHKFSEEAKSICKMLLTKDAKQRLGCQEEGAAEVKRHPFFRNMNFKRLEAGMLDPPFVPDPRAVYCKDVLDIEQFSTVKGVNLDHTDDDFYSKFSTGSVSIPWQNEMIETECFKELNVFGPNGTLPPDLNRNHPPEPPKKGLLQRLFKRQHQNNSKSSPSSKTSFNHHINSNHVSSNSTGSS", "how_it_was_run": "(§2)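 H929 live-cell screen at 10 μM, run in duplicate. Kinase occupancy was assessed via the KiNativ platform, with IC50 determined by mass spectrometry.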"}, "CK1g1": {"biological_target": "CK1g1 (Homo sapiens (Human), UniProt Q9HCP0)", "sequence (Q9HCP0 whole entry)": "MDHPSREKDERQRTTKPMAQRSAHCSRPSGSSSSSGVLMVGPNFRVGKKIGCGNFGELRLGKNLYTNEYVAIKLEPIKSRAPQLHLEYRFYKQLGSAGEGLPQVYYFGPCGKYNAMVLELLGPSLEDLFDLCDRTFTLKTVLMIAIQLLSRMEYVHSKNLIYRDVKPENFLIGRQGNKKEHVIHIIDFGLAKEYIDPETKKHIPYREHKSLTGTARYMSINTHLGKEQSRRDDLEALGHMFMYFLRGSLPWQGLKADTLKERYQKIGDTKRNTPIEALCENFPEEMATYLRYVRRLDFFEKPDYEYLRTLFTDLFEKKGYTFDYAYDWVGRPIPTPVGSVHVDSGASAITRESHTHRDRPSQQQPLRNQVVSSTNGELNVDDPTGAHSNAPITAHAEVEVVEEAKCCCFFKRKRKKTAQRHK", "how_it_was_run": "as §2"}, "SGK2": {"biological_target": "SGK2 (Homo sapiens (Human), UniProt Q9HBY8)", "sequence (Q9HBY8 whole entry)": "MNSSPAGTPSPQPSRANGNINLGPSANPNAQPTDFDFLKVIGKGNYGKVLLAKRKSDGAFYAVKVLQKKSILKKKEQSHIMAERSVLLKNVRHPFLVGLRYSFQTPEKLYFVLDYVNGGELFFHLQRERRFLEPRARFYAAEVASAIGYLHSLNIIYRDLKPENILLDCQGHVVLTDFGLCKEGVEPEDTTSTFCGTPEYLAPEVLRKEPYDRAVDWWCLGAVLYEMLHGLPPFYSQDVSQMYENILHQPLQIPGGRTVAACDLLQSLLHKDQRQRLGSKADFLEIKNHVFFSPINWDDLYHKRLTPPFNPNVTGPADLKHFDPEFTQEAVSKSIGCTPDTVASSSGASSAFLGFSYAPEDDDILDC", "how_it_was_run": "as §1"}, "ARAF": {"biological_target": "ARAF (Homo sapiens (Human), UniProt P10398)", "sequence (P10398 whole entry)": "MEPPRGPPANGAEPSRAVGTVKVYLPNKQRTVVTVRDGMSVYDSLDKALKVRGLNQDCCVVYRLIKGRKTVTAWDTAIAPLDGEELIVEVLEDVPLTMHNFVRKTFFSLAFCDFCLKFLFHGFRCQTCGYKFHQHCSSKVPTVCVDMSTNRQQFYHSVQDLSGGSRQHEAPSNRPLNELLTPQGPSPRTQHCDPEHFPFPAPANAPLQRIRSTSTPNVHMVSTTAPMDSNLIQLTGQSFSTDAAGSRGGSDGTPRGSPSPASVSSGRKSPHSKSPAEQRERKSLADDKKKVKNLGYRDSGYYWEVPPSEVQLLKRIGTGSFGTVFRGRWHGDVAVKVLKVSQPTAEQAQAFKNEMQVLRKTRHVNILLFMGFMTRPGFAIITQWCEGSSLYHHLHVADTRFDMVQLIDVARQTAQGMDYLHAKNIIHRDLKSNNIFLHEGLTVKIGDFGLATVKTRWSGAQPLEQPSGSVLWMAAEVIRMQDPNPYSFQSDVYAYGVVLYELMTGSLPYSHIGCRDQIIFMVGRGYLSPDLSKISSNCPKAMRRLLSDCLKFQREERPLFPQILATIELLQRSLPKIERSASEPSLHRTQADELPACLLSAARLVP", "how_it_was_run": "as §1"}, "PDK1": {"biological_target": "PDK1 (Homo sapiens (Human), UniProt O15530)", "sequence (O15530 whole entry)": "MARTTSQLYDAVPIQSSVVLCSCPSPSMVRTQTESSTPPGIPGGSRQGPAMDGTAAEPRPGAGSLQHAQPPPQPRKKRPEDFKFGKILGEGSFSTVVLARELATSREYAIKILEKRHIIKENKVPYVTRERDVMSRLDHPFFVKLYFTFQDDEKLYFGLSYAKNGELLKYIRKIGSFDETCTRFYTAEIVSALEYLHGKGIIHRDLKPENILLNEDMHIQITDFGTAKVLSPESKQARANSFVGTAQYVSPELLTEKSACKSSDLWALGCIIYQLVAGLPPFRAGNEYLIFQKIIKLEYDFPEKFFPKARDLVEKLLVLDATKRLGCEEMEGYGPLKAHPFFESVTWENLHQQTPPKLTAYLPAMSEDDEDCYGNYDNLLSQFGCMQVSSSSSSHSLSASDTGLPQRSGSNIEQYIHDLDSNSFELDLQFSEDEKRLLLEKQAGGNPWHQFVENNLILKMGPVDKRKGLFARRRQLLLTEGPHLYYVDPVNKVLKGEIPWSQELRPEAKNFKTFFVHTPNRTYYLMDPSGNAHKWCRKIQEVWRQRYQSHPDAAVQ", "how_it_was_run": "as §1"}, "CDK9": {"biological_target": "CDK9 (Homo sapiens (Human), UniProt P50750)", "sequence (P50750 whole entry)": "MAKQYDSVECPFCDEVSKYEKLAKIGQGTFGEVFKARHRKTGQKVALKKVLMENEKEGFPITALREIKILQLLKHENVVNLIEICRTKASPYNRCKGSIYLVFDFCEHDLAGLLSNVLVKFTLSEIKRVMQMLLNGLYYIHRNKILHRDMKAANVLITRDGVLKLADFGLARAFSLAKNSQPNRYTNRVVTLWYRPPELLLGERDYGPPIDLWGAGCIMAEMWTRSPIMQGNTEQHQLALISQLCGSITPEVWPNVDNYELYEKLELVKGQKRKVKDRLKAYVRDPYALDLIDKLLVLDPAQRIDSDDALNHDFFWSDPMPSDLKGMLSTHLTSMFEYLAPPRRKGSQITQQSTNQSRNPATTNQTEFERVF", "sequence (O60563 whole entry partner)": "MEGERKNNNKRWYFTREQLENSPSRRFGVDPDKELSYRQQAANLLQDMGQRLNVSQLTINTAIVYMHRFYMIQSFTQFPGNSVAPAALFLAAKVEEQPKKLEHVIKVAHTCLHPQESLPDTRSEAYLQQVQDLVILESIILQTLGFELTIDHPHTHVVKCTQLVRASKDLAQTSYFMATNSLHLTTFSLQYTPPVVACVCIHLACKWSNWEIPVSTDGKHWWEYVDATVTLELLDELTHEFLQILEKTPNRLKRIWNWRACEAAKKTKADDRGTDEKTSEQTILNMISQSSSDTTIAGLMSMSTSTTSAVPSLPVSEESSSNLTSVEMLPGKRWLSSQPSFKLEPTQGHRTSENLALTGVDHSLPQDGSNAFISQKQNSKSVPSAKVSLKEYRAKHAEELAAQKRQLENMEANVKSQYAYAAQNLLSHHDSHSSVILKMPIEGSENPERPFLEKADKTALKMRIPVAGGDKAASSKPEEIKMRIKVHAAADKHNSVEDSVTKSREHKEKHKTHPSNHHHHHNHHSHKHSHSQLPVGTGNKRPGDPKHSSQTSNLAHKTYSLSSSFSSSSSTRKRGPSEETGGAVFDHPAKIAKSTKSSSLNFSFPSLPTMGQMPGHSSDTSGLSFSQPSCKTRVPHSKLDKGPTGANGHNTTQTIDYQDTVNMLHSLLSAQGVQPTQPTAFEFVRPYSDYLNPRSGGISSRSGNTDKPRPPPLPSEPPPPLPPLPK", "how_it_was_run": "as §1"}, "MAP2K2": {"biological_target": "MAP2K2 (Homo sapiens (Human), UniProt P36507)", "how_it_was_run": "as §2"}, "CK1d, CK1e": {"tested_on": "CK1d, CK1e", "how_it_was_run": "as §2"}, "KHS2": {"biological_target": "KHS2 (Homo sapiens (Human), UniProt Q8IVH8)", "how_it_was_run": "as §2"}, "ROCK1, ROCK2": {"tested_on": "ROCK1, ROCK2", "how_it_was_run": "as §1"}}, "note": "Like-named read-outs stand apart in the source and are kept apart here."}
{"compound": "CN(C1CC1)S(=O)(=O)c1ccc(-c2cnc(N)c(-c3ccc4c(c3)CCNC4=O)c2)c(F)c1", "note": "[Compound I-28, 4-(6-amino-5-(1-oxo-1,2,3,4-tetrahydroisoquinolin-6-yl)pyridin-3-yl)-N-cyclopropyl-3-fluoro-N-methylbenzenesulfonamide]", "values": [{"measurement": "inhibition at 10 µM", "setting": "QSK; read-out: % inhibition (range)", "value": 0, "unit": "%"}, {"measurement": "inhibition at 10 µM", "setting": "QSK; read-out: inhibition (10 μM)", "value": 30.1, "unit": "%"}, {"measurement": "inhibition at 10 µM", "setting": "GPRK5; read-out: % inhibition (range)", "value": 0, "unit": "%"}, {"measurement": "inhibition at 10 µM", "setting": "GPRK5; read-out: inhibition (10 μM)", "value": 10.7, "unit": "%"}, {"measurement": "inhibition at 10 µM", "setting": "CK1g1; read-out: % inhibition (range)", "value": "75 to 90", "unit": "%"}, {"measurement": "inhibition at 10 µM", "setting": "CK1g1; read-out: inhibition (10 μM)", "value": "> 85", "unit": "%"}, {"measurement": "inhibition at 10 µM", "setting": "SGK2; read-out: % inhibition (range)", "value": 0, "unit": "%"}, {"measurement": "inhibition at 10 µM", "setting": "SGK2; read-out: inhibition (10 μM)", "value": -30.3, "unit": "%"}, {"measurement": "inhibition at 10 µM", "setting": "ARAF; read-out: % inhibition (range)", "value": 0, "unit": "%"}, {"measurement": "inhibition at 10 µM", "setting": "ARAF; read-out: inhibition (10 μM)", "value": 8, "unit": "%"}, {"measurement": "inhibition at 10 µM", "setting": "PDK1; read-out: % inhibition (range)", "value": 0, "unit": "%"}, {"measurement": "inhibition at 10 µM", "setting": "PDK1; read-out: inhibition (10 μM)", "value": 5.9, "unit": "%"}, {"measurement": "inhibition at 10 µM", "setting": "CDK9; read-out: % inhibition (range)", "value": 0, "unit": "%"}, {"measurement": "inhibition at 10 µM", "setting": "CDK9; read-out: inhibition (10 μM)", "value": 28.9, "unit": "%"}, {"measurement": "inhibition at 10 µM", "setting": "MAP2K2; read-out: % inhibition (range)", "value": 0, "unit": "%"}, {"measurement": "inhibition at 10 µM", "setting": "MAP2K2; read-out: inhibition (10 μM)", "value": -23.7, "unit": "%"}, {"measurement": "% inhibition (range)", "setting": "CK1d, CK1e; 10 μM", "value": "50-75%"}, {"measurement": "inhibition (10 μM)", "setting": "CK1d, CK1e", "value": 68.2, "unit": "%"}, {"measurement": "inhibition at 10 µM", "setting": "KHS2; read-out: % inhibition (range)", "value": "50 to 75", "unit": "%"}, {"measurement": "inhibition at 10 µM", "setting": "KHS2; read-out: inhibition (10 μM)", "value": 68.3, "unit": "%"}, {"measurement": "% inhibition (range)", "setting": "ROCK1, ROCK2; 10 μM", "value": 0.0, "unit": "%"}, {"measurement": "inhibition (10 μM)", "setting": "ROCK1, ROCK2", "value": 20.8, "unit": "%"}]}
